# From ChEMBL document CHEMBL4888484, “Replenishing the malaria drug discovery pipeline: Screening and hit evaluation of the MMV Hit Generation Library 1 (HGL1) against asexual blood stage Plasmodium falciparum ,using a nano luciferase reporter read-out” (2022)
# Assays:
# [1] = Hit confirmation in dose-response curve in HepG2 cytotoxicity assay, at 72h; type: toxicity, cell-based; set-up: timepoint 72 hour; conditions: human, HepG2 cells
# Plasmodium falciparum [2] = assay: Hit confirmation in dose-response curve in NF54 pLDH assay, at 72h; type: functional, organism-based; set-up: timepoint 72 hour; conditions: NF54, Erythrocyte
# Plasmodium falciparum [3] = assay: Hit confirmation in dose-response curve in NF54 nanoGlo assay, at 72h; type: functional, organism-based, Erythrocyte; set-up: timepoint 72 hour; conditions: Plasmodium falciparum, NF54, Erythrocyte, 72 h
# Plasmodium falciparum [4] = assay: Hit confirmation in dose-response curve in Dd2 pLDH assay, at 72h; type: functional, organism-based; set-up: timepoint 72 hour; conditions: Dd2, Erythrocyte
# Plasmodium falciparum [5] = assay: Hit confirmation in dose-response curve in NF54 nanoGlo assay, at 12h; type: functional, organism-based, Erythrocyte; set-up: timepoint 12 hour; conditions: Plasmodium falciparum, NF54, Erythrocyte, 12 h
Structure (SMILES),IC50 at 72 h [1],IC50 (Plasmodium falciparum [2]),IC50 (Plasmodium falciparum [3]),IC50 (Plasmodium falciparum [4]),IC50 (Plasmodium falciparum [5])
COc1cc(OC)cc(C(=O)Nc2ccc3nc(N4CCC(C)CC4)cc(C)c3c2)c1,> 10 µM,> 10 µM,3.16 µM,5.01 µM,6.76 µM
COc1ccc(-c2cc3nc(C)cc(N4CCN(C/C=C/c5ccccc5)CC4)n3n2)cc1OC,> 10 µM,7.41 µM,2.24 µM,5.62 µM,4.9 µM
CCOc1cc(C(=O)Nc2ccc3nc4c(c(Nc5ccc(OC)c(OC)c5)c3c2)CCCC4)cc(OCC)c1OCC,> 10 µM,3.16 µM,1.38 µM,1.78 µM,2.45 µM
COc1cc([C@H](CC(=O)NC2CCN(Cc3ccccc3)CC2)N2Cc3ccccc3C2=O)cc(OC)c1OC,> 10 µM,2.75 µM,2.4 µM,3.72 µM,5.75 µM
c1ccc(C(c2ccccc2)N2CCN(c3nn4cnnc4c4ccccc34)CC2)cc1,> 10 µM,3.24 µM,1.74 µM,2.82 µM,2.69 µM
COc1ccc(-c2c(C)nn3c(N4CCC(C(=O)NC5CC5)CC4)cc(C)nc23)cc1OC,> 10 µM,> 10 µM,2.69 µM,> 10 µM,1.95 µM
O=c1c2ccccc2nc2cc(-c3ccc(O)cc3)c(-c3ccccc3)nn12,> 10 µM,> 10 µM,2.14 µM,> 10 µM,3.63 µM
COc1nc(-c2cccc(C(=O)N3C[C@@H]4CC[C@H](C3)C(=O)N4)c2)ncc1F,> 10 µM,0.813 µM,0.479 µM,> 10 µM,> 10 µM
Cn1c(=O)c2c(-c3ccc(Cl)cc3)n(-c3cccc4cccc(N)c34)cc2n(C)c1=O,> 10 µM,0.0182 µM,> 10 µM,> 10 µM,> 10 µM
COc1ccc(-c2cc3ncc(C(=O)c4cc(Cl)ccc4O)cn3n2)cc1,> 10 µM,3.89 µM,2.29 µM,3.63 µM,7.24 µM
COc1ccc(CC(=O)N2N=C(C)C[C@]2(O)c2cccnc2)cc1,> 10 µM,> 10 µM,2.95 µM,> 10 µM,1.02 µM
O=C1NC(=O)c2ccc3c4c(ccc1c24)C(=O)N(c1ccccc1)C3=O,> 10 µM,3.55 µM,6.03 µM,1.66 µM,> 10 µM
COc1ccc(-c2c(-c3cccc(OC)c3)[nH]c3c2c(=O)[nH]c(=O)n3C)cc1,> 10 µM,> 10 µM,> 10 µM,> 10 µM,> 10 µM
CCNc1nc(C)cc(Nc2ccc(NC(=O)c3cc(C)ccc3C)cc2)n1,> 10 µM,0.776 µM,0.324 µM,0.631 µM,0.457 µM
Cc1ccc(C2=C[C@@H](c3ccc(Cl)cc3)n3nc(NC(=O)c4ccccc4)nc3N2)cc1,> 10 µM,3.47 µM,1.74 µM,2.63 µM,2.14 µM
COc1ccc(C(=O)N(C(=O)c2ccc(OC)cc2)c2c3c(nc4ccccc24)CCCC3)cc1,> 10 µM,4.9 µM,2.29 µM,3.89 µM,3.24 µM
CCCN(CCC)CCN1C(=O)[C@@H]2C(C(=O)Nc3cc(Cl)cc(Cl)c3)[C@@H]3C=C[C@]2(O3)C1C(=O)NC1CCCCC1 (stereo not given in full),> 10 µM,3.72 µM,2.51 µM,3.02 µM,> 10 µM
COc1ccc(CCNC(=O)c2cnn3c4c(cnc23)C[C@@H](C)CC4)cc1OC,> 10 µM,> 10 µM,3.02 µM,> 10 µM,1.26 µM

Structure (SMILES),IC50 at 72 h [1],IC50 (Plasmodium falciparum [2]),IC50 (Plasmodium falciparum [3]),IC50 (Plasmodium falciparum [4]),IC50 (Plasmodium falciparum [5])
CCOc1ccc(NC(=O)c2cn3nc(-c4ccc(OCC)cc4)cc3nc2C2CCN(C(=O)OC(C)(C)C)CC2)cc1,> 10 µM,> 10 µM,> 10 µM,7.76 µM,> 10 µM
CCNc1nc(C)cc(Nc2ccc(NS(=O)(=O)c3c(C)noc3C)cc2)n1,> 10 µM,3.47 µM,2.69 µM,2.51 µM,5.01 µM
O=C(Nc1ccc(C2(c3ccc(NC(=O)c4ccc(F)cc4)cc3)c3ccccc3C(=O)c3ccccc32)cc1)c1ccc(F)cc1,> 10 µM,5.89 µM,2.04 µM,8.13 µM,5.01 µM
Cc1ccc(C(=O)Nc2cc3c4c(c2)C2CCCC2CN4CC2CCCC32)cc1 (stereo not given),> 10 µM,3.89 µM,2.4 µM,4.17 µM,9.12 µM
COc1ccc(-c2cc3n(n2)C[C@@](C)(C(=O)NCc2ccccc2)N(Cc2ccc4c(c2)OCO4)C3=O)cc1,> 10 µM,> 10 µM,2.45 µM,9.55 µM,4.9 µM
CCN(CC)CC(O)COc1c(Br)cc(C(C)(C)c2cc(Br)c(OCC(O)CN(CC)CC)c(Br)c2)cc1Br (stereo not given),5.75 µM,1.29 µM,0.603 µM,1.12 µM,1.2 µM
Cc1ccc(CC[C@H]2Nc3ccccc3C(c3ccccc3)(c3ccccc3)O2)o1,> 10 µM,3.47 µM,1.86 µM,5.37 µM,9.33 µM
Oc1ccc2ncccc2c1[C@@H](Nc1ccccn1)c1cccc(Br)c1,> 10 µM,5.13 µM,1.58 µM,2.75 µM,3.09 µM
CCc1ccc(-c2cc3n(n2)C[C@@](C)(C(=O)NC2CCCCC2)N(c2cc(C)cc(C)c2)C3=O)cc1,> 10 µM,10 µM,2.29 µM,7.59 µM,5.75 µM
Cc1ccc(-c2cc(C(=O)Nc3nnc(C(C)C)s3)no2)cc1F,> 10 µM,> 10 µM,3.8 µM,> 10 µM,1.91 µM
CCOc1cc(-c2cc(-c3ccccc3O)nc3ccc4ccccc4c23)cc(Br)c1O,> 10 µM,2.82 µM,1.62 µM,2.63 µM,3.63 µM
C[C@@]1(C(=O)NCc2ccccc2)Cn2nc(-c3ccccc3)cc2C(=O)N1c1ccc2c(c1)OCCO2,> 10 µM,9.77 µM,2.24 µM,7.41 µM,3.47 µM
Cn1n[n+](CCCCC(Cl)(Cl)Cl)c2ccccc21,> 10 µM,3.31 µM,2.82 µM,2.88 µM,> 10 µM
c1ccc(-c2noc(-c3ccc(NC4CCCCC4)nn3)n2)cc1,> 10 µM,7.94 µM,3.09 µM,7.24 µM,> 10 µM
COc1ccc(-c2cc3n(n2)C[C@@](C)(C(=O)NCc2ccccc2OC)N(c2cccc(OC)c2)C3=O)cc1,> 10 µM,> 10 µM,3.02 µM,> 10 µM,4.79 µM
Cc1ccc(N(Cc2cccs2)C(=O)c2cccs2)cc1Cl,> 10 µM,9.33 µM,3.39 µM,4.68 µM,5.75 µM
CCc1ccc(C2=C[C@@H](c3cccc(OC)c3)n3ncc(C(=O)Nc4ccc(C)cc4)c3N2)cc1,> 10 µM,8.71 µM,2.63 µM,3.8 µM,3.8 µM
Cc1ccc([C@H](c2c[nH]c3ccccc23)N(C)C(=O)C(C)C)cc1,> 10 µM,> 10 µM,2.75 µM,> 10 µM,1.51 µM
